# Reference: the supplement of paper PMC10307832
# How the values were obtained:
# Assay in all cases: relative viability (nuclei count vs DMSO), 5 days (fraction); higher = more cells survive
# Venetoclax + Palbociclib = compound: CC1(C)CCC(CN2CCN(c3ccc(C(=O)NS(=O)(=O)c4ccc(NCC5CCOCC5)c([N+](=O)[O-])c4)c(Oc4cnc5[nH]ccc5c4)c3)CC2)=C(c2ccc(Cl)cc2)C1 [Venetoclax] + CC(=O)c1c(C)c2cnc(Nc3ccc(N4CCNCC4)cn3)nc2n(C2CCCC2)c1=O [Palbociclib] (partner 0.5 µM)
# Procedure, shortened: (§1)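 Lung cancer cell lines in 1536-well plates were dosed by pin tool the day after seeding, either with one drug alone or with a fixed anchor-drug dose plus five library-drug doses (not always all listed) in √10 steps. After 5 days, cells were fixed and their nuclei stained in one step (final 0.05% Triton X-100, 1% formaldehyde, 1 ug/ml Hoechst), then counted on 4× images. Relative viability is the nuclei count in treated wells divided by that in vehicle wells. Values are medians of duplicate plates.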
# Selumetinib + Pemetrexed = compound: Cn1cnc2c(F)c(Nc3ccc(Br)cc3Cl)c(C(=O)NOCCO)cc21 [Selumetinib] + Nc1nc2[nH]cc(CCc3ccc(C(=O)N[C@@H](CCC(=O)O)C(=O)O)cc3)c2c(=O)[nH]1 [Pemetrexed] (partner 0.2 µM)
# Procedure, shortened: as §1
# Selumetinib + Pictilisib = compound: Cn1cnc2c(F)c(Nc3ccc(Br)cc3Cl)c(C(=O)NOCCO)cc21 [Selumetinib] + CS(=O)(=O)N1CCN(Cc2cc3nc(-c4cccc5[nH]ncc45)nc(N4CCOCC4)c3s2)CC1 [Pictilisib] (partner 1 µM)
# Procedure, shortened: as §1
# Venetoclax + Alpelisib = compound: CC1(C)CCC(CN2CCN(c3ccc(C(=O)NS(=O)(=O)c4ccc(NCC5CCOCC5)c([N+](=O)[O-])c4)c(Oc4cnc5[nH]ccc5c4)c3)CC2)=C(c2ccc(Cl)cc2)C1 [Venetoclax] + Cc1nc(NC(=O)N2CCC[C@H]2C(N)=O)sc1-c1ccnc(C(C)(C)C(F)(F)F)c1 [Alpelisib] (partner 2 µM)
# Procedure, shortened: as §1
Cell Line,relative viability (Venetoclax + Palbociclib; first compound 0.01 µM),relative viability (Venetoclax + Palbociclib; first compound 0.03162 µM),relative viability (Venetoclax + Palbociclib; first compound 0.1 µM),relative viability (Venetoclax + Palbociclib; first compound 0.3162 µM),relative viability (Venetoclax + Palbociclib; first compound 1 µM),relative viability (Selumetinib + Pemetrexed; first compound 0.02 µM),relative viability (Selumetinib + Pemetrexed; first compound 0.06325 µM),relative viability (Selumetinib + Pemetrexed; first compound 0.2 µM),relative viability (Selumetinib + Pemetrexed; first compound 0.6325 µM),relative viability (Selumetinib + Pictilisib; first compound 0.02 µM),relative viability (Selumetinib + Pictilisib; first compound 0.06325 µM),relative viability (Selumetinib + Pictilisib; first compound 0.2 µM),relative viability (Selumetinib + Pictilisib; first compound 0.6325 µM),relative viability (Venetoclax + Alpelisib; first compound 0.01 µM),relative viability (Venetoclax + Alpelisib; first compound 0.03162 µM),relative viability (Venetoclax + Alpelisib; first compound 0.1 µM),relative viability (Venetoclax + Alpelisib; first compound 0.3162 µM),relative viability (Venetoclax + Alpelisib; first compound 1 µM)
NCI-H2342,0.564,0.491,0.56,0.508,0.52,0.778,0.7,0.758,0.839,,,,,,,,,
SK-MES-1,0.329,0.336,0.327,0.326,0.286,0.875,0.746,0.737,0.461,0.324,0.266,0.196,0.233,0.857,0.898,0.887,0.788,0.831
LCLC-97TM1,0.231,0.217,0.202,0.208,0.212,0.186,0.237,0.219,0.258,0.212,0.161,0.158,0.125,,0.317,0.248,0.241,0.249
HCC-44,0.928,0.954,0.934,0.899,0.919,0.635,0.748,0.684,0.75,0.562,0.525,0.379,0.337,0.795,0.745,0.64,0.754,0.705
201T,0.364,0.353,0.321,0.331,0.334,0.358,0.328,0.323,0.308,0.641,0.693,0.625,0.677,0.96,1.01,1.07,0.972,1.03
HOP-62,0.43,0.462,0.373,0.427,0.4,0.31,0.382,0.348,0.321,0.713,0.407,0.26,0.261,0.924,1.21,1.08,1.07,0.9
NCI-H661,0.401,0.411,0.396,0.392,0.392,0.955,0.875,0.92,0.872,0.496,0.39,0.347,0.577,0.597,1.11,0.878,0.569,0.48
NCI-H2087,0.257,0.257,0.235,0.249,0.188,0.677,0.649,0.591,0.361,0.552,0.405,0.329,0.267,1.16,1.11,0.808,1.22,0.664
NCI-H647,0.504,0.488,0.34,0.365,0.269,0.177,0.178,0.19,0.173,0.422,0.384,0.173,0.318,0.703,1.05,,1,1.01
SW 1573,0.337,0.422,0.377,0.36,0.362,0.82,0.725,0.857,0.769,0.366,0.427,0.342,0.386,0.74,0.754,0.632,0.758,0.681
A-427,0.469,0.595,0.498,0.507,0.516,1.11,1.05,1.05,1.04,0.752,0.583,0.493,0.421,1.02,1.09,1.13,1.07,1.17
NCI-H520,0.236,0.217,,0.204,0.201,0.654,0.754,0.752,0.731,0.293,0.24,0.31,0.292,0.893,1.09,0.865,0.796,0.847
NCI-H1755,0.463,0.469,0.481,0.461,0.448,0.467,0.409,0.428,0.509,0.446,0.426,0.342,0.365,0.968,0.912,0.842,0.962,0.893
NCI-H1975,0.667,0.672,0.506,0.515,0.534,0.288,0.309,0.302,0.283,0.259,0.242,0.211,0.204,0.673,0.703,0.609,0.628,0.543
Calu-6,,,,,,,,,,0.931,0.644,0.467,0.335,0.946,0.917,0.98,1.02,0.998
SK-LU-1,0.405,0.403,0.35,0.403,0.372,1,0.978,0.862,0.614,0.618,0.493,0.459,0.258,0.899,1.15,0.855,0.981,0.854
EMC-BAC-2,0.5,0.555,0.533,0.541,0.486,0.508,0.539,0.522,0.574,0.556,0.53,0.523,0.492,0.707,0.744,0.747,0.73,0.687
LK-2,0.681,0.682,0.815,0.65,0.688,0.282,0.349,0.352,0.375,0.761,0.547,0.565,0.544,0.993,1.28,1.12,1.19,1.06
